Data: patent US20250340939A1 (priority 2021, published 2025)
“Also recorded” adds a separate entry of the source. Like-named read-outs stand apart in the source and are kept apart here.

Tests used:
Format in all cases: binding
16S rRNA (E. coli) = test: MST of Cy5 probes hybridized with total bacterial RNA; details: 100 μM Dox, red mode
Description: For bacterial RNA extraction, DH5α E. coli cells transfected with pcDNA3.1+ plasmid were grown overnight in LB medium containing 100 μg/ml ampicillin. The concentration of bacterial cells was determined according to OD at 600 nm, and ˜7·10^8 cells were taken for RNA extraction. 1 volume of bacterial culture was mixed with 2 volumes of RNAprotect® Bacteria Reagent (QIAGEN), vortexed for 5 seconds and incubated for 5 minutes at room temperature. The sample was then centrifuged for 10 minutes at 5,000×g at room temperature. After discarding supernatant, the pellet was resuspended in 100 μl TE buffer (10 mM Tris-HCl, 1 mM EDTA, pH 8) containing 1 mg/ml lysozyme. The samples were vortexed for 5 seconds, and then incubated at room temperature for 10 minutes with vortexing every 2 minutes. 1 ml TRIzol™ reagent was added to the sample. The sample was incubated at room temperature for 5 minutes, and then RNA extraction was performed as described hereinabove.
(§1) RNA was extracted from a sample, and after extraction, the RNA pellet was solubilized and hybridized with a specific fluorescently labeled DNA probe in a hybridization solution (as schematically depicted in FIG. 1). After hybridization, the hybridized sample was loaded into an MST capillary and inserted into a Monolith™ MST instrument (NanoTemper Technologies GmbH, Germany). This instrument included a blue mode (493 nm excitation, […]) and red mode ([…], 670 nm emission) for detection, and an I.R laser (1475 nm+/−15 nm) for heating. The intensities for both fluorescence detection (LED) and IR laser are adjustable, in a range of 0%-100%, wherein the temperature gradient generated has a temperature difference of up to about 2-8° C. Thermophoretic force was induced by infrared laser after 1 second, and maintained for 2 seconds, for a total of a 3 second measurement window (measurement time may optionally be further reduced to 2 seconds using current available MST instruments).
For RNA titration measurements, the extracted RNA solution was diluted to X2 and a serial dilution was prepared in water. Hybridization solutions were prepared as described herein, were X1 solution consisted of SSC buffer X1, 0.05% TWEEN™ 20 surfactant, and 1% formamide unless indicated otherwise. Fluorescently labeled probes were diluted from a 100 μM stock to 1:2400 in hybridization solution X2, denatured for 5 minutes at 100° C. and then incubated on ice for 5 minutes. If a mixture of uniformly labeled probes was prepared, the probes were diluted to a 1:1200 dilution in water and then diluted to 1:2400 with hybridization solution X4 (1:1/number of probes) to create equal molarity of the fluorescent dye. The probe solution was combined with the titration series in a 1:1 (v/v) ratio (10 μL total volume) and allowed to hybridize at a defined temperature for a given time as described. If post-hybridization with intercalating agents (ICA), doxorubicin or Midori™ Green, was performed, the samples were combined with ICA X5 solution 4:1 (v:v) ratio, 8 μL and 2 μL respectively. For cell based measurements, after extraction, the RNA pellet was solubilized and hybridized with a specific fluorescently labeled DNA probe in a hybridization solution (as schematically depicted in FIG. 1).
In order to determine the optimal hybridization temperature, one of the designed probes (16S1^Cy5) was incubated with increasing concentrations of bacterial RNA at different temperatures for 10 minutes. MST measurements were then performed using the red wavelength acquisition mode.
In order to assess the effect of human RNA presence and Dox post-hybridization on signal response, 16S1^Cy5 was incubated with increasing concentrations of bacterial or human total RNA at 71° C. for 2 hours. Equal amounts were then taken for post-hybridization incubation with Dox or hybridization buffer as a control. […]

18S rRNA (human) = test: MST of probe hybridized with human RNA extracted from HEK 293T cells
From the text: as §1
For RNA titration measurements, the extracted RNA solution was diluted to X2 and a serial dilution was prepared in water. Hybridization solutions were prepared as described herein, were X1 solution consisted of SSC buffer X1, 0.05% TWEEN™ 20 surfactant, and 1% formamide unless indicated otherwise. Fluorescently labeled probes were diluted from a 100 μM stock to 1:2400 in hybridization solution X2, denatured for 5 minutes at 100° C. and then incubated on ice for 5 minutes. […]
As depicted in FIG. 3, fluorescent signals were quantified in the 1 second before application of a temperature gradient (Fcold) and between 1 and 2 seconds after application of the temperature gradient (Fhot). […]
As the probes are tagged with different florescent dyes, 18S^ATTO488 can be used as a control for the RNA extraction process. […] The signals of 18S^ATTO488 were measured using a blue wavelength acquisition mode and S^Cy5 using a red wavelength acquisition mode. […]

S-gene RNA (SARS-CoV2) = details: for direction of thermophoretic flux / dependence of thermophoretic signal on S-gene RNA concentration: in the presence of 100 μM Dox; for direction of thermophoretic flux: increasing S-gene; for ΔFnorm (signal response): FIG. 37; for dependence of thermophoretic/fluorescent signal on S-gene RNA concentration: no intercalating agent, red wavelength acquisition mode
HA gene (H1N1 influenza) = tested on: HA gene (H1N1 influenza)
S-HA gene = test: MST of probes with artificial S-HA gene RNA (target length effect)
control RNA = test: MST of probes incubated with control RNA (specificity); details: in the presence of 100 μM Dox; red mode

16S2^Cy5: Cy5-labeled 44 nucleotide DNA probe (SEQ ID NO: 10) complementary to E. coli 16S rRNA (DNA GCGGCCGTACTCCCCAGGCGGTCGACTTAACGCGTTAGCTCCGG; DNA, backbone not given here; Cy5 dye label)
direction of thermophoretic migration (MST curves) (16S rRNA (E. coli)): migrated towards the heating zone both in the presence of bacterial RNA

16S4^Cy5: Cy5-labeled 36 nucleotide DNA probe (SEQ ID NO: 12) complementary to E. coli 16S rRNA (DNA GGCAGTCTCCTTTGAGTTCCCGGCCGGACCGCTGGC; DNA, backbone not given here; Cy5 dye label)
direction of thermophoretic migration (MST curves) (16S rRNA (E. coli)): A similar effect was observed

16S7^Cy5: Cy5-labeled 45 nucleotide DNA probe (SEQ ID NO: 15) complementary to E. coli 16S rRNA (DNA CCCCCTCCATCAGGCAGTTTCCCAGACATTACTCACCCGTCCGCC; DNA, backbone not given here; Cy5 dye label)
direction of thermophoretic migration (MST curves) (16S rRNA (E. coli)): migrated towards the heating zone in the presence of increasing concentrations of bacterial RNA, but away from the heating zone in the absence of bacterial RNA
sensitivity to target RNA concentration (linear regression slope) (16S rRNA (E. coli); single probes, 10 minutes hybridization): significantly more sensitive to target RNA concentration than the other tested probes

18S^ATTO488: probe with SEQ ID NO: 6 tagged with blue fluorescent dye ATTO 488, targets human 18S rRNA (DNA AGGGGCTGACCGGGTTGGTTTTGATCTGATAAATGCACGCATCCCC; ATTO 488 label; misc_feature 1..46 ATTO488 labeled; DNA sequence complementary to nucleotides 205-250 of SEQ ID NO: 5)
selectivity of signal response to target RNA (18S rRNA (human); 100 ng/μl HEK 293T RNA vs 400 ng/μl S-gene, 400 ng/μl control RNA or no RNA, blue mode): selective signal responses to their target RNA
dependence of fluorescent signal on complementary RNA dose (18S rRNA (human); RNA extracted from HEK 293T cells, blue mode): dependent on the dose of complementary RNA
concomitant detection of 18S rRNA in human extracted RNA (18S rRNA (human); mixed with S^Cy5, hybridization at 42° C. for 30 minutes): effective and quantitative

HA^ATTO488: DNA having SEQ ID NO: 8 tagged with blue fluorescent dye ATTO 488, targets H1N1 HA-gene (DNA TGAAGCCGGCAATGGCCCCGAATAGGCCTCTAG; ATTO 488 label; misc_feature 1..33 DNA sequence complementary to nucleotides 567-599 of SEQ ID NO: 7 (nucleotides 1048-1080 of Influenza A H1N1 HA gene; ATTO488 labeled)
dependence of signal on S-gene concentration (off-target) (S-gene RNA (SARS-CoV2); SSC X1, 10% (v/v) formamide, blue mode): not on the concentration of S-gene or control RNA
effect of higher saline sodium citrate buffer concentration on detection sensitivity (HA gene (H1N1 influenza); SSC X1, X2, X4, blue mode): increased detection sensitivity
dependence of signal on HA-gene concentration (HA gene (H1N1 influenza); blue mode): dose-dependent signal; also recorded: dependent on the concentration of HA-gene

SE^Cy5: Cy5-tagged 22 nucleotide DNA probe (SEQ ID NO: 3) designed to bind at the edge of the S-gene (DNA CAATATCACCAAGGCAATCACC; DNA, backbone not given here; Cy5 dye label)
maximum signal response, S-gene vs S-HA gene (S-HA gene; red mode, FIG. 55): considerably stronger in the presence of S-gene than in the presence of S-HA
direction of thermophoretic flux (S-gene RNA (SARS-CoV2); red mode): directed away from the heating zone
ΔFnorm (signal response) (S-gene RNA (SARS-CoV2); no Dox): 54.41 ‰
dependence of thermophoretic/fluorescent signal on S-gene RNA concentration (S-gene RNA (SARS-CoV2)): exhibited a thermophoretic signal dependent on S-gene RNA concentration

SN^Cy5: Cy5-tagged 22 nucleotide "non-binding" DNA probe (SEQ ID NO: 4), negative control (DNA CACCATTAGTGGGTTGGAAACC; DNA, backbone not given here; Cy5 dye label)
dependence of thermophoretic signal on S-gene RNA concentration (S-gene RNA (SARS-CoV2); red mode): not affected by RNA concentration
dependence of thermophoretic/fluorescent signal on S-gene RNA concentration (S-gene RNA (SARS-CoV2)): exhibits no change in MST signal; also recorded: no dependence; also recorded: did not generated dose-dependent signals

S^Cy5: 33 base DNA (SEQ ID NO: 2) tagged with red dye Cy5, binds the middle of SARS-CoV2 S-gene RNA (DNA GGATTGACTAGCTACACTACGTGCCCGCCGAGG; DNA, backbone not given here; Cy5 dye label)
effect of control RNA on probe signal (control RNA): no effect
sensitivity (slope at low RNA levels), S-HA-gene vs S-gene (S-HA gene): considerably greater sensitivity than towards S-gene
affinity towards S-HA gene compared with S-gene (S-HA gene; red mode, FIG. 55): higher affinity towards S-HA gene than to S-gene
maximum signal response, S-gene vs S-HA gene (S-HA gene; red mode, FIG. 55): did not differ
average maximum ΔFnorm (S-gene RNA (SARS-CoV2)): 547.1 ‰
selectivity of signal response to target RNA (S-gene RNA (SARS-CoV2)): selective signal responses to their target RNA
direction of thermophoretic flux (S-gene RNA (SARS-CoV2); red mode): towards the heating zone
dependence of thermophoretic signal on S-gene RNA concentration (S-gene RNA (SARS-CoV2); red mode): altered by S-gene RNA in a dose-dependent manner
Z′-factor (S-gene RNA (SARS-CoV2); maximum signal response with S-gene compared to no RNA control): 0.85
concomitant detection of S-gene in presence of human extracted RNA (S-gene RNA (SARS-CoV2); mixed with 18S^ATTO488, hybridization at 42° C. for 30 minutes): effective and quantitative
ΔFnorm (signal response) (S-gene RNA (SARS-CoV2); no Dox): 110.63 ‰
average maximum ΔFnorm (S-gene RNA (SARS-CoV2); no Dox, red mode): 116.5 ‰
dependence of thermophoretic/fluorescent signal on S-gene RNA concentration (S-gene RNA (SARS-CoV2)): dependent on the dose of complementary RNA; also recorded: exhibited a thermophoretic signal dependent on S-gene RNA concentration
signal response to HA-gene (off-target) (HA gene (H1N1 influenza); red mode, data not shown): no response in signal was observed
